Experimental findings from patent US20260217651A1 (priority 2022, published 2026) are described below.

For assay [1], the system named is SD rats. The assay is described as follows: animal or person. The class given is in vivo, rat. As to conditions: iv; for minimal effective dose: Rattus norvegicus, read-out: Minimal effective anesthetic dose(mg/kg); for Onset time / Righting Reflex Duration / Sedation Duration: rat, in vivo.
Assay [2] relates to SD rats. The assay is described as follows: animal or person. The format is in vivo. As to conditions: Rattus norvegicus, iv, read-out: Minimal effective analgesic dose(mg/kg).

Where two headings read alike, the source gives them in different places.

Turning to `CCOC(=O)N(c1cccc(Cl)c1)N1CCN(c2cc(C(C)C)c(O)c([C@H](C)C3CC3)c2)CC1` [Cpd-69], in assay [1], the minimal effective dose lay in the range of 10 to 20 mg/kg, the “Onset time” value lay within 0.68 to 2.12 min, the “Righting Reflex Duration” value lay within 1.28 to 74.05 min and the “Sedation Duration” value lay in the range of 19.78 to 160.07 min. Besides, the minimal effective dose in assay [2] lay within 10 to 20 mg/kg.

For the compound `CCOC(=O)N(c1cccc(C)c1)N1CCN(c2cc(C(C)C)c(O)c([C@H](C)C3CC3)c2)CC1` [Cpd-70], in assay [1], the minimal effective dose was 10 to 20 mg/kg, the “Onset time” value was 0.38 to 1.07 min, the “Righting Reflex Duration” value lay in the range of 5.02 to 39.35 min and the “Sedation Duration” value was 48.32 to 106.60 min. Also, the minimal effective dose in assay [2] was 10 to 20 mg/kg.

Regarding `CCOC(=O)N(c1ccc(Cl)cc1)N1CCN(c2cc(C(C)C)c(O)c([C@H](C)C3CC3)c2)CC1` [Cpd-73], in assay [1], the minimal effective dose fell in the range of 10 to 20 mg/kg, the “Onset time” value was 0.83 to 1.65 min, the “Righting Reflex Duration” value was 8.78 to 25.28 min and the “Sedation Duration” value was 44.83 to 119.62 min. Moreover, in assay [2], the minimal effective dose lay in the range of 20 to 40 mg/kg.

`CCOC(=O)N(c1ccc(OC)c(OC)c1)N1CCN(c2cc(C(C)C)c(O)c(C(C)C)c2)CC1` [Cpd-96]: in assay [1], the minimal effective dose fell in the range of 20 to 40 mg/kg, the “Onset time” value is 0.13 to 0.75 min, the “Righting Reflex Duration” value was 1.32 to 43.20 min and the “Sedation Duration” value was 86.20 to 295.93 min. For the same compound, in assay [2], the minimal effective dose was in the range of 20 to 40 mg/kg.

Take `CCOC(=O)N(c1ccc(SC)cc1)N1CCN(c2cc(C(C)C)c(O)c(C(C)C)c2)CC1` [Cpd-97]: in assay [1], the minimal effective dose lay in the range of 5 to 10 mg/kg, the “Onset time” value fell in the range of 0.20 to 0.60 min, the “Righting Reflex Duration” value fell in the range of 5.25 to 32.28 min and the “Sedation Duration” value lay in the range of 31.60 to 83.28 min. The minimal effective dose in assay [2] is 10 to 20 mg/kg.

`CCCOc1ccc(N(C(=O)OCC)N2CCN(c3cc(C(C)C)c(O)c(C(C)C)c3)CC2)cc1` [Cpd-99]: in assay [1], the minimal effective dose lay within 10 to 20 mg/kg, the “Onset time” value was 1.03 to 1.38 min, the “Righting Reflex Duration” value lay within 25.58 to 25.87 min and the “Sedation Duration” value was 67.73 to 88.57 min. Besides, the minimal effective dose in assay [2] was 10 to 20 mg/kg.

Turning to `CCOC(=O)N(c1ccc(OC(C)C)cc1)N1CCN(c2cc(C(C)C)c(O)c(C(C)C)c2)CC1` [Cpd-100], in assay [1], the minimal effective dose was 20 to 40 mg/kg, the “Onset time” value is 0.37 to 0.95 min, the “Righting Reflex Duration” value is 6.65 to 26.68 min and the “Sedation Duration” value is 62.20 to 114.60 min. Further, the minimal effective dose in assay [2] lay within 20 to 40 mg/kg.

Take `CCOC(=O)N(c1ccc(OCC(C)C)cc1)N1CCN(c2cc(C(C)C)c(O)c(C(C)C)c2)CC1` [Cpd-104]: in assay [1], the minimal effective dose was in the range of 20 to 40 mg/kg, the “Onset time” value is given as 0.42 min, the “Righting Reflex Duration” value is recorded as 59.33 min and the “Sedation Duration” value is 377.87 min. Further, the minimal effective dose in assay [2] lay within 20 to 40 mg/kg.

Consider `CCOC(=O)N(c1ccccc1)N1CCN(c2cc(C(C)C)c(O)c([C@@H](C)C3CC3)c2)CC1` [Cpd-105], for which, in assay [1], the minimal effective dose lay within 5 to 10 mg/kg, the “Onset time” value lay in the range of 0.68 to 1.80 min, the “Righting Reflex Duration” value is 0.24 to 22.82 min and the “Sedation Duration” value lay within 50.17 to 52.20 min. Further, the minimal effective dose in assay [2] fell in the range of 10 to 20 mg/kg.

On to `CCOC(=O)N(c1ccc(OC)cc1)N1CCN(c2cc(C(C)C)c(O)c([C@@H](C)C3CC3)c2)CC1` [Cpd-107], for which, in assay [1], the minimal effective dose fell in the range of 5 to 10 mg/kg, the “Onset time” value fell in the range of 0.42 to 1.52 min, the “Righting Reflex Duration” value lay in the range of 0.72 to 34.8 min and the “Sedation Duration” value is 34.37 to 73.58 min. Further, in assay [2], the minimal effective dose lay in the range of 10 to 20 mg/kg.

For `COc1ccc(C2(C(=O)OC(C)C)CCN(c3cc(C(C)C)c(O)c(C(C)C)c3)CC2)cc1` [Cpd-123], in assay [1], the minimal effective dose was 20 to 40 mg/kg, the “Onset time” value is on record as 0.77 min, the “Righting Reflex Duration” value worked out at 24.08 min and the “Sedation Duration” value amounted to 75.50 min. The minimal effective dose in assay [2] is 20 to 40 mg/kg.

With `CCOC(=O)N(Cc1ccc(OC)cc1)N1CCN(c2cc(C(C)C)c(O)c(C(C)C)c2)CC1` [Cpd-124], in assay [1], the minimal effective dose fell in the range of 20 to 40 mg/kg, the “Onset time” value fell in the range of 0.15 to 0.68 min and the “Righting Reflex Duration” value is 2.83 to 65.08 min. Also, the minimal effective dose in assay [2] is 20 to 40 mg/kg.

Regarding `CCOC(=O)N(Cc1ccsc1)N1CCN(c2cc(C(C)C)c(O)c(C(C)C)c2)CC1` [Cpd-125], in assay [1], the minimal effective dose was in the range of 10 to 20 mg/kg, the “Onset time” value is listed as 1.22 min, the “Righting Reflex Duration” value came out at 6.87 min and the “Sedation Duration” value worked out at 53.93 min. Also, the minimal effective dose in assay [2] is 10 to 20 mg/kg.
